For one assay, the system named is intestinal ILC2s. The experiment in a line: OVA food allergy model with intragastric α-CGRP. Type of assay: in vivo, mouse. As to conditions: α-CGRP intragastrically together with OVA, pre-sensitized mice; P=0.02, P=0.009, t-test. An excerpt:
Intraperitoneal administration of α-CGRP impaired IL-25-induced expansion of KLRG1^+ ILC2s (FIGS. 5B and 12A), consistent with the in vitro results. Recent work has shown that intestinal KLRG1^+ ILC2s can migrate to mesenteric lymph nodes (mLNs) and other tissues during inflammation via sphingosine 1-phosphate (S1P)-mediated chemotaxis (Huang et al., 2018). To determine whether α-CGRP primarily impacts intestinal or mLN ILC2s, Applicants relied on the fact that intestinal GATA3^+ ILC2s are generally phenotypically KLRG1^+ST2^− (data not shown), whereas mLN ILC2s are mainly ST2^+ at steady state (FIG. 5C). IL-25 administration increased the frequency of both KLRG1^+ST2^− inflammatory ILC2s and ST2^+ ILC2s in mLNs (FIGS. 5C-E and 12B). […] Thus, α-CGRP preferentially regulates the response of intestinal KLRG1^+ST2^− ILC2s. […] Taken together, α-CGRP antagonized expansion of intestinal KLRG1^+ ILC2s in two different type 2 inflammatory models.
To induce allergic reaction to OVA, 6 to 7 weeks old mice were sensitized twice, two weeks apart, with 50 μg of OVA plus 1 mg of aluminum potassium sulfate adjuvant via intraperitoneal injection. Two weeks later, mice were orally administered with 50 mg of OVA on every other day for a total of five times. […]
Flow cytometry and cell sorting. […] Flow cytometry was performed on Cytoflex (Beckman Coulter) and analyzed with FlowJo software. […]

The test system of another assay is lung ILC2s. Conditions: co-stimulated with IL-33; cited from earlier work.
In a further assay the test system is intestinal KLRG1+ ILC2s. Description: Bulk RNA-seq of intestinal KLRG1+ ILC2s stimulated in vitro. It counts as cell-based, mouse. An excerpt: To determine if α-CGRP can directly trigger signaling in ILC2s and impact their transcriptional states under inflammatory conditions, Applicants performed bulk RNA-seq of KLRG1^+ ILC2s isolated from the small intestine and stimulated in vitro with IL-25 alone or together with α-CGRP. […] Thus, α-CGRP inhibits IL-25-induced proliferation and activation of intestinal KLRG1+ILC2s.
The presence at homeostasis of α-CGRP receptors on ILC2s and α-CGRP's expression on ChAT^+ intestinal neurons led Applicants to hypothesize that it has an effect on ILC2s during homeostasis. To test this hypothesis, Applicants next measured the expression profiles of intestinal KLRG1^+ ILC2s stimulated in vitro by α-CGRP alone, and identified genes differentially expressed under this signal (FIG. 6D, Methods).
ILC2 culture. Sort-purified intestinal KLRG1^+ ILC2s were incubated in RPMI supplemented with 10% FCS, 10 mM Hepes, 1 mM sodium pyruvate, 10% FBS, 80 μm 2-mercaptoethanol, 2 mM glutamine, 100 U/ml penicillin, […] streptomycin, 100 ng/ml IL-2 and 100 ng/ml IL-7 in 96-well round bottom plate at 37° C. and 5% CO2. If indicated, the culture was supplemented with 100 ng/ml IL-25. For the in vitro proliferation assay, cells from different mice were pooled and labeled with CellTrace Violet, and then cultured at 1,000-1,500 cells per well with 10 μg/ml α-CGRP for 60 hours. When indicated, 10 μM forskolin or 1 μM SQ 22, 536 in DMSO was supplied and cells were cultured for 40 hours. For bulk RNA-seq, cells from individual mice were stimulated at 200 cells per well with 0.4 μg/ml α-CGRP for 3 hours. For bulk ATAC-seq, cells were stimulated with 0.4 μg/ml α-CGRP for 2 hours.
Bulk RNA-seq. 200 ILC2s from each condition were lysed in 10 ul TCL buffer plus 0.5% 2-Mercaptoethanol. Libraries were processed with SMART-Seq2 (Picelli et al., 2013) with at least three replicates per condition, and paired-end sequenced (75 bp×2) with a […] Nextseq 500 high output V2 kit.
Reads were aligned to the mouse reference genome (NCBI 38, mm10) using Bowtie (Langmead et al., 2009) with default parameters, and expression abundances were estimated using RSEM software (Li and Dewey, 2011). The differential gene expression analysis was performed with edgeR (Robinson et al., 2010) with default parameters.

This is an account of results in patent US20220143148A1, “COMPOSITIONS AND METHODS FOR MODULATING CGRP SIGNALING TO REGULATE INTESTINAL INNATE LYMPHOID CELLS” (The Broad Institute, Inc., priority 2019, published 2022).

For “α-CGRP: neuropeptide alpha-calcitonin gene-related peptide, encoded by exon 5 of Calca; administered as peptide”, the “expansion of intestinal ILC2s in a food allergy model” value in the assay on intestinal ILC2s was “significantly suppressed”. Further, the “IL-5 expression in lung ILC2s” value in the assay on lung ILC2s was “increases”. In the assay with intestinal KLRG1+ ILC2s (IL-25 together with α-CGRP in vitro), the Il5 expression entry is reported as “further induced”. The IL-25-induced activation signature entry in the assay on intestinal KLRG1+ ILC2s (IL-25 together with α-CGRP in vitro, adjusted P<0.001, t-test) is recorded as “significantly suppressed”. Besides, in the assay on intestinal KLRG1+ ILC2s (α-CGRP alone in vitro), the “expression of adenylate cyclase-mediated GPCR signaling genes (Adrb2, Adora2a, Pde4b, Akap12) and cAMP response genes (Areg, Crem, Il5)” value is “induced expression”; the “expression of cell cycle arrest genes (Cdkn1a, Gadd45a, Akap12) and negative regulators of ILC2 expansion (Adrb2, Pdcd1)” value is on record as “induced expression”.
